Source: PubChem BioAssay (NCI)
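Cells were grown in 96-well plates and exposed to each compound for 48 hours at five concentrations; endpoints were interpolated linearly between bracketing concentrations, or set to the highest concentration if not reached. GI50: concentration for 50% inhibition of growth. TGI denotes the concentration required for complete inhibition of growth.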

Legend:
Assay in all cases: growth of human tumour cells (NCI), 48 h
[1] = test system: EKVX NSCLC
[2] = test system: HOP-92 NSCLC
[3] = test system: SNB-75 CNS
[4] = test system: A498 renal
[5] = test system: A549 NSCLC
[6] = test system: CCRF-CEM leukemia
[7] = test system: COLO 205 colon
[8] = test system: HL-60(TB) leukemia
[9] = test system: HS 578T breast
[10] = test system: HT29 colon
[11] = test system: K-562 leukemia
[12] = test system: MCF7 breast
[13] = test system: OVCAR-4 ovarian
[14] = test system: OVCAR-8 ovarian
[15] = test system: RPMI-8226 leukemia
[16] = test system: RXF 393 renal
[17] = test system: SK-MEL-2 melanoma
[18] = test system: SK-OV-3 ovarian
[19] = test system: SR leukemia
[20] = test system: 786-0 renal
[21] = test system: BT-549 breast
[22] = test system: CAKI-1 renal
[23] = test system: DU-145 prostate
[24] = test system: HCC-2998 colon
[25] = test system: HCT-116 colon
[26] = test system: HOP-62 NSCLC
[27] = test system: IGROV1 ovarian
[28] = test system: KM12 colon
[29] = test system: M14 melanoma
[30] = test system: MDA-MB-231 breast
[31] = test system: MDA-MB-435
[32] = test system: MOLT-4 leukemia
[33] = test system: NCI-H226 lung
[34] = test system: NCI-H23 lung
[35] = test system: NCI-H460 lung
[36] = test system: NCI-H522 lung
[37] = test system: NCI/ADR-RES ovarian
[38] = test system: OVCAR-3 ovarian
[39] = test system: OVCAR-5 ovarian
[40] = test system: PC-3 prostate
[41] = test system: SF-268 CNS
[42] = test system: SF-295 CNS
[43] = test system: SF-539 CNS
[44] = test system: SK-MEL-5 melanoma
[45] = test system: SN12C renal
[46] = test system: SW-620 colon
[47] = test system: TK-10 renal
[48] = test system: UACC-62 melanoma
[49] = test system: UO-31 renal
[50] = test system: ACHN renal
[51] = test system: HCT-15 colon
[52] = test system: LOX IMVI melanoma
[53] = test system: SK-MEL-28 melanoma
[54] = test system: SNB-19 CNS
[55] = test system: T-47D breast
[56] = test system: U251 CNS
[57] = test system: UACC-257 melanoma

## Nc1nc(Cl)cc(OCC2(CO)CCC2)n1
[1]
  GI50: 60.6 µM
[2]
  GI50: 51.3 µM
[3]
  GI50: 68.4 µM

## C[C@H](c1ccc(Cl)cc1[N+](=O)[O-])N1C(=O)c2cc(I)ccc2N=C(OCCCN2CCN(C)CC2)[C@@H]1c1ccc(Cl)cc1
[4]
  GI50: 2.08 µM
  TGI: 5.42 µM
[5]
  GI50: 1.57 µM
  TGI: 3.14 µM
[6]
  GI50: 2.18 µM
  TGI: 5.41 µM
[7]
  GI50: 1.69 µM
  TGI: 3.27 µM
[8]
  GI50: 2.44 µM
  TGI: 4.41 µM
[9]
  GI50: 2.02 µM
  TGI: 6.47 µM
[10]
  GI50: 1.91 µM
  TGI: 3.49 µM
[11]
  GI50: 1.81 µM
  TGI: 4.03 µM
[12]
  GI50: 1.64 µM
  TGI: 3.26 µM
[13]
  GI50: 1.6 µM
  TGI: 3.15 µM
[14]
  GI50: 1.61 µM
  TGI: 3.4 µM
[15]
  GI50: 2.33 µM
  TGI: 6.5 µM
[16]
  GI50: 1.73 µM
  TGI: 3.25 µM
[17]
  GI50: 2.11 µM
  TGI: 4.05 µM
[18]
  GI50: 1.79 µM
  TGI: 3.24 µM
[3]
  GI50: 1.71 µM
  TGI: 4.27 µM
[19]
  GI50: 1.65 µM
  TGI: 3.88 µM

## O=C(Oc1cccc(Cl)c1)c1ccccc1Nc1ccnc(C(F)(F)F)c1
[20]
  GI50: 3.53 µM
  TGI: 11.4 µM
[5]
  GI50: 18.1 µM
  TGI: 55.1 µM
[21]
  GI50: 6.77 µM
  TGI: 27.6 µM
[22]
  GI50: 2.13 µM
  TGI: 4.1 µM
[6]
  GI50: 0.898 µM
  TGI: 91.6 µM
[23]
  GI50: 14.2 µM
  TGI: 27.6 µM
[1]
  GI50: 22.2 µM
  TGI: 46.4 µM
[24]
  GI50: 3.46 µM
  TGI: 6.66 µM
[25]
  GI50: 1.63 µM
  TGI: 3.45 µM
[8]
  GI50: 12.8 µM
  TGI: > 100 µM
[26]
  GI50: 24.9 µM
  TGI: 44.7 µM
[2]
  GI50: 8.74 µM
  TGI: 32.1 µM
[9]
  GI50: 20.8 µM
  TGI: 61 µM
[27]
  GI50: 15.2 µM
  TGI: > 100 µM
[11]
  GI50: 3.27 µM
  TGI: 34.3 µM
[28]
  GI50: 9.53 µM
  TGI: 41.4 µM
[29]
  GI50: 1.77 µM
  TGI: 4.46 µM
[12]
  GI50: 4.78 µM
  TGI: 20 µM
[30]
  GI50: 1.69 µM
  TGI: 4.7 µM
[31]
  GI50: 3.04 µM
  TGI: 10.7 µM
[32]
  GI50: 0.938 µM
  TGI: > 100 µM
[33]
  GI50: 2.15 µM
  TGI: 8.89 µM
[34]
  GI50: 2.41 µM
  TGI: 8.26 µM
[35]
  GI50: 11.2 µM
  TGI: 43.7 µM
[36]
  GI50: 4.21 µM
  TGI: 41.1 µM
[37]
  GI50: 2.24 µM
  TGI: 6.1 µM
[38]
  GI50: 3.8 µM
  TGI: 18.1 µM
[39]
  GI50: 13.8 µM
  TGI: 57 µM
[14]
  GI50: 3.52 µM
  TGI: 18.1 µM
[40]
  GI50: 7.39 µM
  TGI: 23.6 µM
[15]
  GI50: 1.83 µM
  TGI: 4.33 µM
[41]
  GI50: 3.03 µM
  TGI: 10.8 µM
[42]
  GI50: 18.3 µM
  TGI: 45.5 µM
[43]
  GI50: 2.79 µM
  TGI: 7.24 µM
[17]
  GI50: 15.7 µM
  TGI: > 100 µM
[44]
  GI50: 2.59 µM
  TGI: 6.73 µM
[45]
  GI50: 2.92 µM
  TGI: 6.18 µM
[19]
  GI50: 0.434 µM
  TGI: > 100 µM
[46]
  GI50: 4.33 µM
  TGI: 23.3 µM
[47]
  GI50: 85 µM
  TGI: > 100 µM
[48]
  GI50: 2.02 µM
  TGI: 6.71 µM
[49]
  GI50: 23.5 µM
  TGI: > 100 µM

## COc1cc2c(cc1OC)-c1ncc3c(OC)ccc(OC)c3c1C2
[20]
  GI50: 49.2 µM
  TGI: > 100 µM
[5]
  GI50: 16.1 µM
  TGI: > 100 µM
[50]
  GI50: 24 µM
  TGI: > 100 µM
[21]
  GI50: 11.1 µM
  TGI: 32.5 µM
[22]
  GI50: 14.4 µM
  TGI: > 100 µM
[7]
  GI50: 42.7 µM
  TGI: > 100 µM
[23]
  GI50: 28.1 µM
  TGI: > 100 µM
[1]
  GI50: 16.9 µM
  TGI: 54.9 µM
[24]
  GI50: 22.6 µM
  TGI: > 100 µM
[25]
  GI50: 17.8 µM
  TGI: > 100 µM
[51]
  GI50: 9.93 µM
  TGI: > 100 µM
[26]
  GI50: 21.4 µM
  TGI: 61.3 µM
[2]
  GI50: 39.4 µM
  TGI: > 100 µM
[9]
  GI50: 8.05 µM
  TGI: 42.4 µM
[27]
  GI50: 13.9 µM
  TGI: 48.5 µM
[11]
  GI50: 12.3 µM
  TGI: 82 µM
[28]
  GI50: 16.5 µM
  TGI: 83.7 µM
[52]
  GI50: 16.7 µM
  TGI: > 100 µM
[29]
  GI50: > 100 µM
  TGI: > 100 µM
[30]
  GI50: > 100 µM
  TGI: > 100 µM
[31]
  GI50: 23.4 µM
  TGI: 99.6 µM
[35]
  GI50: 20.9 µM
  TGI: > 100 µM
[36]
  GI50: 2.94 µM
  TGI: 31.8 µM
[37]
  GI50: 23.6 µM
  TGI: > 100 µM
[38]
  GI50: 15.4 µM
  TGI: 46.8 µM
[13]
  GI50: 71.9 µM
  TGI: > 100 µM
[39]
  GI50: 44 µM
  TGI: > 100 µM
[14]
  GI50: 2.36 µM
  TGI: 38.2 µM
[40]
  GI50: 26.5 µM
  TGI: > 100 µM
[15]
  GI50: 6.44 µM
  TGI: 78.2 µM
[16]
  GI50: 16.4 µM
  TGI: 48.9 µM
[42]
  GI50: 12.1 µM
  TGI: 42.7 µM
[43]
  GI50: 14 µM
  TGI: 33.4 µM
[17]
  GI50: 27.3 µM
  TGI: 79 µM
[53]
  GI50: > 100 µM
  TGI: > 100 µM
[44]
  GI50: 12.4 µM
  TGI: 34.3 µM
[18]
  GI50: 37.3 µM
  TGI: 98.7 µM
[45]
  GI50: 14.8 µM
  TGI: 58 µM
[54]
  GI50: 42.3 µM
  TGI: > 100 µM
[3]
  GI50: > 100 µM
  TGI: > 100 µM
[46]
  GI50: 35.1 µM
  TGI: > 100 µM
[55]
  GI50: 29 µM
  TGI: > 100 µM
[47]
  GI50: 16.8 µM
  TGI: 43.6 µM
[56]
  GI50: 14.6 µM
  TGI: 56.4 µM
[57]
  GI50: 19.7 µM
  TGI: 55.4 µM
[48]
  GI50: 18 µM
  TGI: > 100 µM
[49]
  GI50: 18.3 µM
  TGI: 60 µM
